Literature values as cited in article PMC2151269, “Broad phase II and pharmacokinetic study of methoxy-morpholino doxorubicin (FCE 23762-MMRDX) in non-small-cell lung cancer, renal cancer and other solid tumour patients” (British Journal of Cancer, 1998).

Parameters: method as in Tidefelt et al, 1989
Conditions: 0-48 h after simultaneous infusion of 20 mg of epirubicin and 20 mg of doxorubicin; ref Tidefelt et al, 1989; cited from earlier work

COc1cccc2c1C(=O)c1c(O)c3c(c(O)c1C2=O)C[C@@](O)(C(=O)CO)C[C@@H]3O[C@H]1C[C@H](N)[C@H](O)[C@H](C)O1 [doxorubicin]
Peak cellular concentrations relative to plasma concentrations: around 200 times
